Key:
[1] = system: patients with positive baseline lactose tolerance tests; test: Standard lactose tolerance test, baseline vs post-treatment; type: in vivo, humans
Experimental: (§1) From May 1998 through April 2002, 41 patients (22 with clinical and 19 with both clinical and laboratory evidence of severe lactose intolerance) were treated with sublimed sulfur (USP) and a restricted lactose diet for a mean of 3.6 (standard deviation [SD] 3.4) weeks, followed by a regular diet and sublimed sulfur for a mean of 5.8 (SD 5.0) weeks. Quantitative comparisons were made between baseline and post-treatment symptoms in all patients and standard lactose tolerance test results in a subset of 19 patients with positive baseline lactose tolerance tests.

[2] = system: patients with clinical lactose intolerance; test: Treatment of lactose-intolerant patients with sublimed sulfur: clinical symptoms, baseline vs post-treatment; type: in vivo, humans
Experimental: as §1

[3] = limited course of treatment, conclusion

Structure (SMILES): [S] [sublimed sulfur]
- patients who converted from intolerant to tolerant test results ([1]; 9 of 19 patients): 47%
- serum glucose level versus baseline in the lactose tolerance test ([1]; at 30 minutes, t=2.81, p=0.01): increased significantly above baseline
- serum glucose level versus baseline in the lactose tolerance test ([1]; at 60 minutes, t=2.58, p=0.02): increased significantly above baseline
- lactase activity [1, 3]: significant increase
- patients who remained asymptomatic after a second course of treatment ([2]; 13 of 17 patients whose symptoms redeveloped): 76%
- patients who became clinically asymptomatic after treatment ([2]; 17 of the subset of 19 patients with positive baseline lactose tolerance tests): 89%
- patients who remained symptom-free after one course of treatment ([2]; 20 of the remaining 39 patients): 51%
- patients who became asymptomatic during treatment ([2]; 39 of 41 patients, sublimed sulfur with restricted lactose diet, then regular diet): 95%
- overall relapse rate ([2]; after one course of treatment, confidence interval in brackets): 0.46 (confidence interval 0.32-0.61)
- median symptom-free period after discontinuation of sublimed sulfur ([2]; human, in vivo): 76 weeks
- lactose tolerance [2, 3]: restored lactose tolerance for prolonged periods
